Molecules are shown by their SMILES. Where two headings read alike, the source gives them in different places.

The results in this text go back to patent US10639306B2, “Aldose reductase inhibitors and uses thereof” (The Trustees of Columbia University in the City of New York, priority 2010, dated 2020).

The format of data set [1] is physicochemical. To be noted: for Area (integration of absorbance peak): 3 min, pH 7.1. How it is done:
Each sample of Compound A & zopolrestat were placed, separately, in water (MQW ultra nanopure) at ambient temperature and vortexed for 3 minutes. The aliquots were then filtered through a tightly-packed cotton plug (placed in a pipette) to remove any residual solids. The attempted concentrations of the respective solutions of Compound A and zopolrestat made were 0.05 mg/mL, 0.1 mg/mL, 0.5 mg/mL, 1.0 mg/mL, 5.0 mg/mL, and 10.0 mg/mL. The pH of the water used was 7.1 (measured electronically by an Orion perpHect LogR Meter Model #370).
The filtered samples were run through a binary gradient (program: 5%-100% MeCN over 30 mins) on a LC-MS (Shimadzu LCMS-2010A Liquid Chromatography Mass Spectrometer, reverse-phase column). A 5 μL volume of each sample solution was injected for each run. Each trace contained a peak (for Compound A, TR approx. 14.070 mins; for zopolrestat, TR approx. 16.666 mins) measured at a wavelength of 254 nm for which the respective parent ion masses were observed.
By comparing the absorbance areas under the peaks corresponding to Compound A & zopolrestat in each water solution made (Table 1), a solubility curve for each compound was generated (FIG. 1).

Data set [2] in a line: Solubility in Krebs-Henseleit buffer. The data set is classed as physicochemical. To be noted: Krebs-Henseleit buffer with glucose, palmitate, bovine serum albumin, insulin.
The target in data set [3] is human recombinant aldose reductase (Homo sapiens, UniProt P15121). The experiment in a line: biochemical. The method, then:
The reductase activity of Compound A and zopolrestat were spectrophotometrically assayed by following the decrease of NADPH at 25° C. for 4 min as described in Sato, S. (1992), “Rat kidney aldose reductase and aldehyde reductase and polyolproduction in rat kidney” Am. J. Physiol. 263, F799.F805, incorporated by reference herein in its entirety.
Briefly, the reaction mixture (total volume 1 ml) contained 0.1 mM NADPH, 100 mM substrate (DL-glyceraldehyde or L-xylose) and human recombinant aldose reductase (100 mU) in 0.1 M phosphate buffer, pH 6.2. The head to head experiment was carried out in a microplate assay for AR inhibition using D-Glyceraldehyde and NADPH and the absorbance changes were monitored at 340 nm and % inhibition was calculated for ARIs at concentrations ranging from 0.1 nM to 100 μM (Table 2 and FIG. 2). Data is presented as mean±standard deviation and is an average of 5 separate runs. The reaction was started by adding the substrate (glyceraldehyde or xylose) as well as the same reaction mixture in which the substrate replaced by deionized water was used as a control. One enzyme unit (U) was defined as the activity consuming 1 μmole of NADPH per min at 25° C.

Consider `O=C(O)Cc1nn(Cc2nc3cc(Cl)ccc3s2)c(=O)c2nccnc12`, for which the melting point lay in the range of 196 to 197 °C.

As for `O=C(O)Cc1nn(Cc2nc3cc(C(F)(F)F)ccc3s2)c(=O)c2nccnc12` [Compound A, 2-(8-oxo-7-((5-(trifluoromethyl)benzo[d]thiazol-2-yl)methyl)-7,8-dihydropyrazino[2,3-d]pyridazin-5-yl)acetic acid], the “Solubility in pH 7.1 water relative to Zopolrestat” value in data set [1] was “significantly greater solubility”. In addition, the “Area (integration of absorbance peak)” value in data set [1] (0.05 mg/mL) came to 1811131; in data set [1] (0.1 mg/mL), 3221003; in data set [1] (0.5 mg/mL), 5814304; in data set [1] (1 mg/mL), 10515430; in data set [1] (5 mg/mL) it was 17216187; in data set [1] (10 mg/mL) it was 20397336. Also, in data set [2], the “Solubility in Krebs-Henseleit buffer” value is recorded as “soluble without any precipitation or turbidity”. The IC50 in data set [3] is 0.0289 nM. For the same compound, the “Activity relative to zopolrestat in vitro against aldose reductase” value in data set [3] (fold more active than zopolrestat) is on record as “approximately 100 ×”.

Regarding `O=C(O)Cc1nn(Cc2nc3cc(C(F)(F)F)ccc3s2)c(=O)c2ccccc12` [zopolrestat, reference compound], the “Area (integration of absorbance peak)” value in data set [1] (0.05 mg/mL) was 1039247; in data set [1] (0.1 mg/mL), 1899466; in data set [1] (0.5 mg/mL), 4304556; in data set [1] (1 mg/mL), 6129559; in data set [1] (5 mg/mL) it was 13314544; in data set [1] (10 mg/mL), 13362465. For the same compound, the “Solubility in Krebs-Henseleit buffer” value in data set [2] is “heat was applied to render zopolrestat soluble”. For the same compound, the inhibition at 1 pM in data set [3] was determined as 11%. Moreover, the inhibition at 10 pM in data set [3] was 29%.
